Measured values from ChEMBL document CHEMBL2311409, “Design, synthesis and biological evaluation of coumarin alkylamines as potent and selective dual binding site inhibitors of acetylcholinesterase” (Bioorg Med Chem, 2013).
pIC50, pKi: −log10 of the molar value.

Legend:
[1] = target: Cholinesterase (Equus caballus) (UniProt P81908); assay: Inhibition of equine butyrylcholinesterase using butyrylthiocholine as substrate at 10 uM incubated for 20 mins prior to substrate addition measured after 3 mins by Ellman's method
Acetylcholinesterase [2] = target: T1, Acetylcholinesterase (Bos taurus, UniProt P23795)
T1 sequence (P23795 whole entry): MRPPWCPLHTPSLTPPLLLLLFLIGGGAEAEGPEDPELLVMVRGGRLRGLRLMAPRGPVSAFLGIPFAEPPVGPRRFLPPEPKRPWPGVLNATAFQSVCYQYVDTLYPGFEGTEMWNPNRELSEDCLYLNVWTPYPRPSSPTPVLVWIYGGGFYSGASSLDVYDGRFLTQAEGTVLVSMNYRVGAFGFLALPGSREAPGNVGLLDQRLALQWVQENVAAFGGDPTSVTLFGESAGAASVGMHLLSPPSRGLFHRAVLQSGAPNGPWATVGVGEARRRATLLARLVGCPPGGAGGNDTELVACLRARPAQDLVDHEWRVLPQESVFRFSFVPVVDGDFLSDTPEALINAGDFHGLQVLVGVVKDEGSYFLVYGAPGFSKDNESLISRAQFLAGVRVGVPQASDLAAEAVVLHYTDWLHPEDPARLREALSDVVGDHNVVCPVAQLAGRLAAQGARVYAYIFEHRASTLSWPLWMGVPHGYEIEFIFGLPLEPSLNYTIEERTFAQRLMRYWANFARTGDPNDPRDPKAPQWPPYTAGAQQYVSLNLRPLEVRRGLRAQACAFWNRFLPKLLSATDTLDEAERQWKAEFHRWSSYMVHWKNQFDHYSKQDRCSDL
Description: Inhibition of bovine acetylcholinesterase using acetylcholine iodide as substrate incubated for 20 mins prior to substrate addition measured after 3 mins by Ellman's method

Cholinesterase = Cholinesterase (Equus caballus, UniProt P81908)
Description: Inhibition of equine butyrylcholinesterase using butyrylthiocholine as substrate incubated for 20 mins prior to substrate addition measured after 3 mins by Ellman's method

Acetylcholinesterase [3] = target: Acetylcholinesterase (Homo sapiens, UniProt P22303); assay: Inhibition of human acetylcholinesterase
Acetylcholinesterase [4] = target: T1, Acetylcholinesterase; assay: Mixed-type reversible inhibition of bovine acetylcholinesterase using S-acetylthiocholine as substrate incubated for 20 mins prior to substrate addition measured after 3 mins by Lineweaver-Burk plot analysis

Cholinesterase (Equus caballus), sequence (P81908 whole entry): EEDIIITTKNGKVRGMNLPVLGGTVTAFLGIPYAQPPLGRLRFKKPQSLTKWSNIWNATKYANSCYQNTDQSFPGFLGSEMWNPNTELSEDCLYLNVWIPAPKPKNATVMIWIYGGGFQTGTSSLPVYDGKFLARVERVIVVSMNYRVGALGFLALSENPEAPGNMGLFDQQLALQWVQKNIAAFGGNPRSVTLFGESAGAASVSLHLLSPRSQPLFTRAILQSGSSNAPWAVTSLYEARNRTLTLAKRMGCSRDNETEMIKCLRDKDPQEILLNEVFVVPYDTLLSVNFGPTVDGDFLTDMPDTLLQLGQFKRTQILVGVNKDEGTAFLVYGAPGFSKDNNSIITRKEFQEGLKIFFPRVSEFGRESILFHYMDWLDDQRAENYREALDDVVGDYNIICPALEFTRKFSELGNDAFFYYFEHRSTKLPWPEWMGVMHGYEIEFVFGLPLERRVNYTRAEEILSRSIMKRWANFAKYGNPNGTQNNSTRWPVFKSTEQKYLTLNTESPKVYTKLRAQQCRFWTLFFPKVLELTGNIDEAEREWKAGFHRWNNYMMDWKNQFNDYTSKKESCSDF
Cholinesterase, sequence (P81908 whole entry): as above
Acetylcholinesterase (Homo sapiens, UniProt P22303), sequence (P22303 whole entry): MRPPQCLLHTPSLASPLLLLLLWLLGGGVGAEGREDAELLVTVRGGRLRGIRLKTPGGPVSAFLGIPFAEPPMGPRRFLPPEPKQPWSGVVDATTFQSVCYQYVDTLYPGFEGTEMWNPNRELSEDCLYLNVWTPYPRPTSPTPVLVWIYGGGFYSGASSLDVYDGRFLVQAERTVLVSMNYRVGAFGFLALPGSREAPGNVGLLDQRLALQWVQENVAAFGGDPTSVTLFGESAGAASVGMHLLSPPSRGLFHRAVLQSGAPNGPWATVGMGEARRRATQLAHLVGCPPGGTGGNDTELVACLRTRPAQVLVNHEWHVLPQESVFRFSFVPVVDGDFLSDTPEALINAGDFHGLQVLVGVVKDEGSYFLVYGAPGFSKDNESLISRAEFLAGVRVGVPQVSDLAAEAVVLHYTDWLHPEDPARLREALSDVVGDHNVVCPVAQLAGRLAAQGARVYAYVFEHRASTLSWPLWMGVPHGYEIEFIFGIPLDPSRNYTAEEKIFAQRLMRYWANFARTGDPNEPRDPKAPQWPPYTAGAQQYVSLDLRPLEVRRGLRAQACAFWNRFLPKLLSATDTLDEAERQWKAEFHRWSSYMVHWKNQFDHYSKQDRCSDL

SMILES	inhibition [1] [%]	pIC50 (Acetylcholinesterase [2])	pIC50 (Cholinesterase)	pIC50 (Acetylcholinesterase [3])	pKi (Acetylcholinesterase [4])
COc1cc2cc(NC(=O)CCCN(C)Cc3ccccc3)c(=O)oc2cc1OC	43	6.48	–	–	–
COc1cc2cc(C(=O)NC3CCN(Cc4ccccc4)CC3)c(=O)oc2cc1OC	19	7.55	–	–	–
COc1cc2cc(NC(=O)CCN(C)Cc3ccccc3)c(=O)oc2cc1OC	0	4.85	–	–	–
COc1cc2cc(C(=O)NCCCCN(C)Cc3ccccc3)c(=O)oc2cc1OC	23	7.68	–	–	–
COc1cc2cc(NC(=O)CN(C)Cc3ccccc3)c(=O)oc2cc1OC	11	4.59	–	–	–
COc1cc2cc(C(=O)OCCCN(C)Cc3ccccc3)c(=O)oc2cc1OC	38	6.95	–	–	–
CN(CCC(=O)Nc1cc2ccccc2oc1=O)Cc1ccccc1	0	4.18	–	–	–
COc1cc2cc(C(=O)NCCN(C)Cc3ccccc3)c(=O)oc2cc1OC	15	5.05	–	–	–
COc1cc2cc(OC3CCN(Cc4ccccc4)CC3)c(=O)oc2cc1OC	36	5.82	–	–	–
COc1cc2cc(C(=O)NCCCN(C)Cc3ccccc3)c(=O)oc2cc1OC	24	7.07	–	–	–
CN(CCCOc1cc2ccccc2oc1=O)Cc1ccccc1	–	5.35	5.40	–	–
COc1ccc2cc(OC3CCN(Cc4ccccc4)CC3)c(=O)oc2c1	46	4.92	–	–	–
O=c1oc2ccccc2cc1OC1CCN(Cc2ccccc2)CC1	–	5.35	5.10	–	–
COc1ccc2oc(=O)c(OC3CCN(Cc4ccccc4)CC3)cc2c1	34	5.13	–	–	–
COc1cc2cc(C(=O)OCC3CCN(Cc4ccccc4)CC3)c(=O)oc2cc1OC	–	7.14	5.33	–	–
COc1cc2cc(NC(=O)[C@H]3CCC[C@@H](NCc4ccccc4)C3)c(=O)oc2cc1OC (relative stereo)	–	8.12	4.48	7.37	8.07
COc1cc2cc(OCC3CCN(Cc4ccccc4)CC3)c(=O)oc2cc1OC	–	7.68	5.41	–	–
COc1cc2cc(C(=O)N3CCN(Cc4ccccc4)CC3)c(=O)oc2cc1OC	12	5.40	–	–	–
COc1cc2cc(C(=O)OC3CCN(Cc4ccccc4)CC3)c(=O)oc2cc1OC	12	7.85	–	–	–
